Patent publication US9981944B2, “GDF-8 inhibitors” (Rigel Pharmaceuticals, Inc., priority 2015, dated 2018)
Structures can show the parent of a compound that is named as a salt.

How the values were obtained:
[1] = tested on: GDF8 signaling (p-SMAD-3 Ser423/425); experiment: AlphaScreen SureFire SMAD3 (p-Ser423/425) assay, GDF8 stimulated (GDF pSMAD (MPC11)); format: cell-based; details: Mus musculus, MPC-11, inhibition of GDF8 signaling
[2] = tested on: TGF-β signaling (p-SMAD-3 Ser423/425); experiment: AlphaScreen SureFire SMAD3 (p-Ser423/425) assay, TGF-β stimulated (TGF-β pSMAD (MPC-11)); format: cell-based
HIS-TGFβR2 WT = HIS-TGFβR2 WT (Homo sapiens (Human), UniProt P37173); experiment: HTRF probe displacement assay, HIS-TGFβR2 WT; format: binding; details: 1 nM HIS-TGFβR2 WT, 1 hour at room temperature, read-out: TGFBR2WT IC50
Experimental: (§1) Compounds were dissolved at 10 mM in dimethylsulfoxide (DMSO) and evaluated at eleven concentrations. IC50 values were derived by non-linear regression analysis.

HIS-TGFβR1 T204D = HIS-TGFβR1 T204D (Homo sapiens (Human), UniProt P36897, T204D); experiment: HTRF probe displacement assay, HIS-TGFβR1 T204D; format: binding; details: 1 nM HIS-TGFβR1 T204D, 1 hour at room temperature, read-out: TGFBR1T204D IC50
Experimental: as §1

[3] = Mus musculus, MPC-11, inhibition of TGF-β signaling

HIS-TGFβR2 WT, sequence (P37173 23-567): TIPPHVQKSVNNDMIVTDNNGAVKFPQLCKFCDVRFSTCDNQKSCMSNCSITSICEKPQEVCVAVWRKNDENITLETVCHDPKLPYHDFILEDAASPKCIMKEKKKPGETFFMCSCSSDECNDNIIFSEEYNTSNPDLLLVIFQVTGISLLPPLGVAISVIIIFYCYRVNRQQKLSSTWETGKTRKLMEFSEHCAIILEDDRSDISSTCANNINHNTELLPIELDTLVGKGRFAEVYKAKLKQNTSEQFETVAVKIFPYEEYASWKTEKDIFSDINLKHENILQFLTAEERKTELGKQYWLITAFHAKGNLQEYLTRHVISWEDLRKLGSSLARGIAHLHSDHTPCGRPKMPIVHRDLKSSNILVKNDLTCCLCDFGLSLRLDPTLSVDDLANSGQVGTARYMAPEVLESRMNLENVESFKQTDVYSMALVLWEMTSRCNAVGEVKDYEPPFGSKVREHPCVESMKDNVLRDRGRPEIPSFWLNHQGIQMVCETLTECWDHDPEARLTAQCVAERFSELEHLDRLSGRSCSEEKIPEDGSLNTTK
HIS-TGFβR1 T204D, sequence (P36897 34-503 T204D): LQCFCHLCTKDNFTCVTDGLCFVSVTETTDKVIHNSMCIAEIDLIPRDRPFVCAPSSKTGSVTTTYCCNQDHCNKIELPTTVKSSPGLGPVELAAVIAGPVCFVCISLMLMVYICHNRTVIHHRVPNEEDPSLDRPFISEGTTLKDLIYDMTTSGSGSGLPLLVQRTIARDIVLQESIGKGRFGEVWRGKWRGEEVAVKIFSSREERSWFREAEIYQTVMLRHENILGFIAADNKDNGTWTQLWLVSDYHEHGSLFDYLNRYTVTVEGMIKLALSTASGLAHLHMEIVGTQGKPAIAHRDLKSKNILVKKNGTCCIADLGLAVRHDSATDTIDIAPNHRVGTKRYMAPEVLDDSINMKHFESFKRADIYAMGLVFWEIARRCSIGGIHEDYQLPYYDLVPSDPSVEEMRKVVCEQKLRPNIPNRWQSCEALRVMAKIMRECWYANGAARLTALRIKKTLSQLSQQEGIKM

SMILES	IC50 [1] [nM]	IC50 [2, 3] [nM]	IC50 (HIS-TGFβR2 WT) [nM]	IC50 (HIS-TGFβR1 T204D) [nM]	other results
Cc1cccc(-c2ncccc2-c2ccnc3ccccc23)n1 [Compound 1, 4-(6′-Methyl-[2,2′-bipyridin]-3-yl)quinolone]	19700	10600			
Cc1cccc(-c2ncccc2-c2ccc3ncnc(N)c3c2)n1 [Compound 2B, 6-(6′-methyl-[2,2′-bipyridin]-3-yl)quinazolin-4-aminium formate]					IC50 ([2]; inhibition of TGF-β signaling, formate): 112 nM
c1ccc(-c2ncccc2-c2ccc3ncnn3c2)nc1 [Compound 8, 6-([2,2′-Bipyridin]-3-yl)-[1,2,4]triazolo[1,5-a]pyridine]	8060	23600			
Nc1ncnc2ccc(-c3cccnc3-c3cccc(F)n3)cc12 [Compound 11A, 6-(6′-fluoro-[2,2′-bipyridin]-3-yl)quinazolin-4-aminium 2,2,2-trifluoroacetate]	229	1170			
Nc1ncnc2ccc(-c3cccnc3-c3ccccn3)cc12 [Compound 12A, 6-([2,2′-bipyridin]-3-yl)quinazolin-4-aminium formate]	1310	5480			
CCOC(=O)c1cnn2ccc(-c3cccnc3-c3ccc(F)c(C)n3)nc12 [Compound 130, ethyl 5-(5′-fluoro-6′-methyl-[2,2′-bipyridin]-3-yl)pyrazolo[1,5-a]pyrimidine-3-carboxylate]			> 15000	14	
Cc1nc(-c2ncccc2-c2ccn3ncc(C(=O)O)c3n2)ccc1F [Compound 131, 5-(5′-fluoro-6′-methyl-[2,2′-bipyridin]-3-yl)pyrazolo[1,5-a]pyrimidine-3-carboxylic acid]			> 15000	211	
Cc1nc(-c2ncccc2-c2ccn3ncc(C(=O)NC4CC4)c3n2)ccc1F [Compound 132, N-cyclopropyl-5-(5′-fluoro-6′-methyl-[2,2′-bipyridin]-3-yl)pyrazolo[1,5-a]pyrimidine-3-carboxamide]			> 15000	36	
Cc1nc(-c2ncccc2-c2ccn3ncc(C(=O)NC4COC4)c3n2)ccc1F [Compound 133, 5-(5′-fluoro-6′-methyl-[2,2′-bipyridin]-3-yl)-N-(oxetan-3-yl)pyrazolo[1,5-a]pyrimidine-3-carboxamide]			> 15000	24	
CCOC(=O)c1cnn2ccc(-c3cccnc3-c3cccc(C(F)F)n3)nc12 [Compound 134, ethyl 5-(6′-(difluoromethyl)-[2,2′-bipyridin]-3-yl)pyrazolo[1,5-a]pyrimidine-3-carboxylate]			> 15000	28	
O=C(O)c1cnn2ccc(-c3cccnc3-c3cccc(C(F)F)n3)nc12 [Compound 135, 5-(6′-(difluoromethyl)-[2,2′-bipyridin]-3-yl)pyrazolo[1,5-a]pyrimidine-3-carboxylic acid]			> 15000	107	
FC(F)(F)c1cccc(-c2ncccc2-c2ccn3nccc3n2)n1 [Compound 136, 5-(6′-(trifluoromethyl)-[2,2′-bipyridin]-3-yl)pyrazolo[1,5-a]pyrimidine]			> 15000	15	
Cc1nc(-c2ncccc2-c2ccn3nccc3n2)ccc1F [Compound 137, 5-(5′-fluoro-6′-methyl-[2,2′-bipyridin]-3-yl)pyrazolo[1,5-a]pyrimidine]			> 15000	8	

Now from value to compound, other results behind:

IC50 [1] [nM]	IC50 [2, 3] [nM]	IC50 (HIS-TGFβR2 WT) [nM]	IC50 (HIS-TGFβR1 T204D) [nM]	SMILES	other results
129				Cc1cccc(-c2ncccc2-c2ccc3ncnc(N)c3c2)n1 [Compound 2A, 6-(6′-methyl-[2,2′-bipyridin]-3-yl)quinazolin-4-aminium 2,2,2-trifluoroacetate]	IC50 ([2]; inhibition of TGF-β signaling, 2,2,2-trifluoroacetate): 251 nM
734	1710			Cc1cccc(-c2ncccc2-c2ccc3ncc(C#N)n3c2)n1 [Compound 3, 6-(6′-Methyl-[2,2′-bipyridin]-3-yl)imidazo[1,2-a]pyridine-3-carbonitrile]	
215	501			Cc1cccc(-c2ncccc2-c2ccc3ncnn3c2)n1 [Compound 4, 6-(6′-Methyl-[2,2′-bipyridin]-3-yl)-[1,2,4]triazolo[1,5-a]pyridine]	
280	1070			Cc1cccc(-c2ncccc2-c2ccn3ncnc3c2)n1 [Compound 5, 7-(6′-Methyl-[2,2′-bipyridin]-3-yl)-[1,2,4]triazolo[1,5-a]pyridine]	
28.6	53.8			Cc1cccc(-c2ncccc2-c2ccc3ncc(C(N)=O)n3c2)n1 [Compound 6, 6-(6′-Methyl-[2,2′-bipyridin]-3-yl)imidazo[1,2-a]pyridine-3-carboxamide]	
8510				N#Cc1cnc2ccc(-c3cccnc3-c3ccccn3)cn12 [Compound 7, 6-([2,2′-Bipyridin]-3-yl)imidazo[1,2-a]pyridine-3-carbonitrile]	
119	281			NC(=O)c1cnc2ccc(-c3cccnc3-c3ccccn3)cn12 [Compound 9, 6-([2,2′-Bipyridin]-3-yl)imidazo[1,2-a]pyridine-3-carboxamide]	
		> 15000	5	Cc1cccc(-c2ncccc2-c2ccn3nccc3n2)n1 [Compound 138, 5-(6′-methyl-[2,2′-bipyridin]-3-yl)pyrazolo[1,5-a]pyrimidine]	
